From PubChem BioAssay (NCI) come the findings set out here.

Molecules are shown by their SMILES.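 96-well plates; 48 h exposure; 5 concentrations. Endpoints by linear interpolation between flanking doses. Not reached: highest tested concentration assigned. GI50 = concentration required for 50% inhibition of growth. TGI: total growth inhibition.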

Among the test systems are IGROV1 ovarian; M14 melanoma; NCI-H226 lung; OVCAR-3 ovarian; SF-268 CNS; SK-MEL-2 melanoma; SK-MEL-28 melanoma; SNB-19 CNS; TK-10 renal; UO-31 renal.
Common to all, as to experiment: inhibition of tumour cell growth, NCI panel, 48 h

In the case of `CCOC(=O)c1cnc2c(ccc3ncccc32)c1NCCCN(CC)CC`, the TGI is greater than 100 µM in the test on IGROV1 ovarian; 35.1 µM in the test with M14 melanoma; greater than 100 µM with NCI-H226 lung; greater than 100 µM in the test with OVCAR-3 ovarian; greater than 100 µM in the test with SF-268 CNS; greater than 100 µM in the test with SK-MEL-2 melanoma. The TGI in the test with SK-MEL-28 melanoma, in the test on SNB-19 CNS, in the test on TK-10 renal and in the test with UO-31 renal was greater than 100 µM in each case.
Regarding `O=C(O)c1c(=O)cccc2ssc12`, the GI50 in the test on IGROV1 ovarian was 2.39 µM; in the test with M14 melanoma it was 1.92 µM; in the test with NCI-H226 lung it was 1.87 µM; in the test on OVCAR-3 ovarian, 1.81 µM; with SF-268 CNS, 1.73 µM; with SK-MEL-2 melanoma, 2.03 µM. Also, the GI50 in the test with SK-MEL-28 melanoma was 1.69 µM; with SNB-19 CNS, 1.92 µM; in the test with TK-10 renal, 1.75 µM; with UO-31 renal, 1.66 µM. Also, the TGI is 5.91 µM in the test with IGROV1 ovarian; 4.07 µM with M14 melanoma; 3.6 µM with NCI-H226 lung; 3.38 µM in the test on OVCAR-3 ovarian; 3.46 µM with SF-268 CNS; 3.83 µM with SK-MEL-2 melanoma. Further, the TGI with SK-MEL-28 melanoma came to 3.25 µM; in the test on SNB-19 CNS, 3.79 µM; in the test on TK-10 renal, 3.23 µM; in the test with UO-31 renal, 3.44 µM.
`O=C1OC(=O)C2CCCC3CCCC1C32` (stereo unspecified): the TGI in the test with IGROV1 ovarian, in the test with M14 melanoma, in the test on NCI-H226 lung, with OVCAR-3 ovarian, with SF-268 CNS and in the test with SK-MEL-2 melanoma was greater than 100 µM throughout. In addition, the TGI in the test with SK-MEL-28 melanoma, with SNB-19 CNS, in the test on TK-10 renal and in the test with UO-31 renal was greater than 100 µM each time.
Take `CCOC(=O)C(CC/C=C\c1ccccc1)N1CCC[C@H]1C(=O)OC` (stereo partly specified): the TGI in the test with IGROV1 ovarian, in the test on M14 melanoma, in the test on NCI-H226 lung, in the test with OVCAR-3 ovarian, in the test on SF-268 CNS and in the test with SK-MEL-2 melanoma was greater than 100 µM throughout. Besides, the TGI in the test on SK-MEL-28 melanoma, in the test on SNB-19 CNS, in the test on TK-10 renal and with UO-31 renal was greater than 100 µM each time.
Turning to `Cc1cc(-c2ccccn2)cc(C)c1/C=C/c1cncc(-c2nn[nH]n2)c1`, the GI50 with IGROV1 ovarian, with M14 melanoma, in the test on NCI-H226 lung, with OVCAR-3 ovarian, with SF-268 CNS and in the test on SK-MEL-2 melanoma was greater than 25 µM throughout. For the same compound, the GI50 with SK-MEL-28 melanoma, in the test with SNB-19 CNS, in the test on TK-10 renal and in the test on UO-31 renal was greater than 25 µM throughout. Besides, the TGI in the test with IGROV1 ovarian, in the test on M14 melanoma, in the test on NCI-H226 lung, in the test on OVCAR-3 ovarian, in the test on SF-268 CNS and with SK-MEL-2 melanoma was greater than 25 µM throughout. The TGI in the test with SK-MEL-28 melanoma, in the test with SNB-19 CNS, in the test with TK-10 renal and in the test with UO-31 renal was greater than 25 µM throughout.
As for `CC1(C)NCCC[C@]2(C)[C@H]3CC[C@@H]4[C@H]5[C@H](C(=O)/C=C/c6ccccn6)CC[C@]5(CO)CC[C@@]4(C)[C@]3(C)CC[C@@H]12`, the GI50 is 1.81 µM in the test on M14 melanoma; 4.24 µM in the test with NCI-H226 lung; 2.14 µM in the test on OVCAR-3 ovarian; 11.2 µM in the test with SF-268 CNS; 2.49 µM in the test with SK-MEL-2 melanoma; 3.75 µM in the test on SK-MEL-28 melanoma. Besides, the GI50 with SNB-19 CNS is 3.92 µM; in the test with TK-10 renal, 4.8 µM; in the test on UO-31 renal it was 5.7 µM. Further, the TGI is 3.56 µM in the test on M14 melanoma; 20.7 µM in the test on NCI-H226 lung; 4.89 µM with OVCAR-3 ovarian; 31.2 µM in the test on SF-268 CNS; 6.91 µM with SK-MEL-2 melanoma; 15.7 µM in the test on SK-MEL-28 melanoma. Besides, the TGI in the test with SNB-19 CNS was 19.8 µM; with TK-10 renal, 24.8 µM; in the test with UO-31 renal it was 23.3 µM.
On to `CC1=C(O)/C(=C/C(C)CCC/C(C)=C/C=C/C(C)CCCc2ccoc2)OC1=O` (stereo unspecified), for which the TGI in the test on M14 melanoma is greater than 100 µM; with NCI-H226 lung it was 68.8 µM; with SF-268 CNS, 97.9 µM; with SK-MEL-2 melanoma, 57.9 µM; in the test with SK-MEL-28 melanoma, greater than 100 µM; in the test on TK-10 renal it was 78.6 µM. In addition, in the test with UO-31 renal, the TGI was greater than 100 µM.
`Cn1c(N)nc(=O)c2c1N(C1OC(CO)C(O)C1O)CN2Cc1ccccc1` (stereo unspecified): the TGI in the test with IGROV1 ovarian, in the test on M14 melanoma, in the test on NCI-H226 lung, in the test on OVCAR-3 ovarian, in the test on SF-268 CNS and in the test with SK-MEL-2 melanoma was greater than 100 µM throughout. In addition, the TGI in the test with SNB-19 CNS, in the test with TK-10 renal and in the test on UO-31 renal was greater than 100 µM each time.
Turning to `CCOC(=O)C#Cc1c(C(=O)OCC)nnn1Cc1ccc([N+](=O)[O-])cc1`, the GI50 with IGROV1 ovarian was 11.9 µM; in the test with M14 melanoma, 2.97 µM; in the test on NCI-H226 lung, 1.72 µM; in the test on SF-268 CNS, 7.49 µM; with SK-MEL-2 melanoma, 13 µM; with SK-MEL-28 melanoma, 3.03 µM. Also, the results for the GI50 in the test on SNB-19 CNS, with TK-10 renal and in the test on UO-31 renal were 18.9 µM, 1.87 µM and 1.75 µM, respectively. In addition, the TGI in the test on IGROV1 ovarian was 28.5 µM; in the test with M14 melanoma, 9.13 µM; with NCI-H226 lung, 3.33 µM; in the test on SF-268 CNS, 21.5 µM; in the test with SK-MEL-2 melanoma it was 26.3 µM; with SK-MEL-28 melanoma, 10.2 µM. For the same compound, the figures for the TGI with SNB-19 CNS, in the test on TK-10 renal and in the test on UO-31 renal were 45.3 µM, 3.33 µM and 3.78 µM, respectively.
As to `O=C(O/N=C1/CCC/C1=C\c1ccccc1)c1ccc(Cl)c(Cl)c1`, the TGI in the test with IGROV1 ovarian, in the test on M14 melanoma, in the test with NCI-H226 lung, in the test with OVCAR-3 ovarian, in the test on SF-268 CNS and in the test with SK-MEL-2 melanoma was greater than 100 µM in each case. The TGI in the test on SK-MEL-28 melanoma, with TK-10 renal and with UO-31 renal was greater than 100 µM in each case.
